Read-outs that look alike come from different tables or passages of the source.
Experiments:
[1] = biological target: T1, hSEP (His6-tagged hSEP ectodomain) (Homo sapiens, UniProt Q495T6); experiment: Inhibition of enzymatic breakdown of CNP and VIP by hSEP (in vitro enzymatic assay, HPLC); assay type: biochemical; settings: 15 min preincubation, 60 min at 37° C.
T1 construct: His6-tagged hSEP ectodomain; His6; purchased Innogenetics, Ghent, Belgium
T1 sequence (Q495T6 49-779 limits assumed): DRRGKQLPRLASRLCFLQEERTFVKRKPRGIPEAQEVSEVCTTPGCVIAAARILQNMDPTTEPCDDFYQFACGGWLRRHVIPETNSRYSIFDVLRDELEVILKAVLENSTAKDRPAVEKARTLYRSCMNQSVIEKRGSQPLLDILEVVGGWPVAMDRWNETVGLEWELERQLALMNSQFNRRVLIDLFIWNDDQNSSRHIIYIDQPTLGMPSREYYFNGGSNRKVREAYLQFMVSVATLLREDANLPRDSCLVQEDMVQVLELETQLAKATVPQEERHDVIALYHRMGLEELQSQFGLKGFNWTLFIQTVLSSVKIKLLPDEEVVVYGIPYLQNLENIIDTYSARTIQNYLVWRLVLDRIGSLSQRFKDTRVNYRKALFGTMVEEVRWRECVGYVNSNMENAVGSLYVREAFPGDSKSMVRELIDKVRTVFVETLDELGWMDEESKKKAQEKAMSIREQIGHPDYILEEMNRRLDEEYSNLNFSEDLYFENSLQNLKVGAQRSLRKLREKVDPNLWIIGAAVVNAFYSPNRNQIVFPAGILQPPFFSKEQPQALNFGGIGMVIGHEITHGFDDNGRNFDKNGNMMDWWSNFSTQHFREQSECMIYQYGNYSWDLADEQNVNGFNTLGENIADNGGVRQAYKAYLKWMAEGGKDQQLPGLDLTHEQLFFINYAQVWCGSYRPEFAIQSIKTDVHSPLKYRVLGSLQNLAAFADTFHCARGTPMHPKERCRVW
Procedure: (§1) 1. Inhibition of Enzymatic Breakdown of CNP and VIP by the Test Compounds
(§2) The inhibition of the enzymatic breakdown of CNP and VIP by the test compounds of Formula I according to the invention was measured in an enzymatic in vitro assay according to the following protocol:
(§3) • a) hSEP (sol hu)(his)6; or: His6-tagged hSEP ectodomain. • stock solution: 53 μg/ml in 20 mM HEPES pH 7.2, 5% glycerol, 0.005% Tween20, 100 mM NaCl, purity>99% • working solution: stock solution diluted with assay buffer to 5 μg/ml • Supplier: Innogenetics, Ghent, Belgium. Preparation and purification of the protein were performed as described in WO 02/094176. • b) NEP (prepared from pig kidney cortex) • stock solution: 120 μg/ml in 20 mM bisTris, purity>95% • working solution: stock solution diluted with assay buffer to 5 μg/ml • Supplier: Dr. Philippe Crine, Univ. of Montreal, Canada Substrates: • a) VIP • b) CNP (32-53) • stock solution: 100 μM in assay buffer • Supplier: Bachem, Weil am Rhein, Germany
(§4) Assay buffer: 100 mM Tris pH 7.0, 250 mM NaCl
(§5) All test compounds were dissolved in DMSO at 10 mM and further diluted with assay buffer.
(§6) 70 μl of assay buffer, 10 μl of enzyme working solution (NEP or hSEP) and 10 μl of a test compound solution were mixed in an Eppendorf vial and preincubated at 37° C. for 15 minutes. Then, 10 μl of peptide stock solution (VIP or CNP) was added and the reaction mixture was incubated at 37° C. for 60 min. to allow enzymatic hydrolysis. The enzymatic reaction was subsequently terminated by heating to 95° C. for 5 min. After centrifugation (Heraeus Biofuge B, 3 min) the supernatant was subjected to HPLC.
(§7) For separating the remaining substrate from the cleavage products, a reversed phase HPLC technique with a CC 125/4 Nucleosil 300/5 C18 RP column and a CC 8/4 Nucleosil 100/5 C18 precolumn (Macherey-Nagel, Duren, Germany) was used. 60 μl of the reaction samples were injected into the HPLC and the column was eluted at a flow rate of 1 ml/min with the following gradient: […]
(§8) All peptides were detected by absorbance at 214 nm (UV spectroscopy).
(§9) Basis of the calculation of % inhibition is the peak area of the undegraded peptide (VIP or CNP) for an inhibitor containing sample X in comparison to samples containing only peptide (blank) or peptide and enzyme without inhibitor (control) according to the following equation: % inhib=100*(X−control)/(blank−control)
(§10) All samples were run in duplicate and mean values were used. A solvent control (0.1% DMSO) was added to each assay run.

[2] = tested on: human corpus cavernosum; experiment: Big-ET-induced contraction of human cavernosal strips in vitro; assay type: cell-based; settings: compounds at 10 μM, 20 min incubation; big-ET-1 10^−8 M; mean of n corpus cavernosum samples
Procedure: 2. Influence of Test Compounds on Big-ET-Induced Contraction of Human Cavernosal Strips In Vitro
Human erectile tissues were obtained from the corpus cavernosum of 9 patients undergoing surgery for implantation of penile prosthesis as treatment of erectile dysfunction or penile congenital curvature. After surgery, the tissue samples were transported and stored at 4° C. in RPMI-1640 medium containing HEPES (23.8 mM), penicillin (100 IU/ml) and streptomycin (0.1 mg/ml) until use (within 24 hours). Eight sections of 4×2×2 mm were excised from the corpus cavernosum of each donor for each experiment. Cavernosal strips were suspended in 5 ml organ chambers filled with Krebs-HEPES buffer. Organ chambers were maintained at 37° C. and continuously bubbled with 95% O2 and 5% CO2 to maintain a pH at 7.4. The cavernosal strips were connected to force transducers for isometric tension recording (Pioden controls Ltd, UK), and an initial tension of 1 g was applied. Following amplification, the tension changes were digitalized via a Mac Lab™/8 using Chart software (AD Instruments Ltd). The tissue preparation were allowed to equilibrate for 90 minutes, while being washed periodically (every 15 minutes) with fresh Krebs-HEPES buffer. When a stable resting tension was attained, the strips were set to at least 500 mg of basal tension. Following the equilibration period, the erectile tissues were primed with KCl 80 mM during 10 min. Once this priming period was achieved, the strips were washed by fresh Krebs-HEPES solution and allowed to re-equilibrate for 30 minutes at 500 mg of tension.
Once the strips were stabilized after the priming period, they were incubated with one of the following compounds (all at 10 μM, unless indicated otherwise) during 20 min: compound of Formula IV, compound of Formula V, SM-19712 (a selective and potent endothelin converting enzyme-1 inhibitor), DL-thiorphan (a selective and potent NEP inhibitor), and the combination of SM-19712, 10 μM and DL-thiorphan, and the common vehicle (phosphate buffer).
The strips were then exposed to the half-maximally effective concentration of big-ET-1 (10^−8 M) determined in the preliminary experiments until a stable response was obtained.
Contractile responses were expressed as absolute change in maximal developed tension (in mg). To reduce the potential heterogeneity of responses between strips, the contraction to big-ET-1 was normalized by the contractile responses to KCl 80 mM obtained during the priming period.
The results are from duplicate or triplicate determinations from a single corpus cavernosum sample were averaged and values are expressed as percentage of the contractile responses induced by 80 mM of KCl, as mean […]SEM, for n corpus cavernosum samples.

[3] = biological target: T2, NEP (prepared from pig kidney cortex) (Sus scrofa, UniProt A0A4X1SQE6); experiment: Inhibition of enzymatic breakdown of CNP and VIP by NEP (in vitro enzymatic assay, HPLC); assay type: biochemical; settings: 15 min preincubation, 60 min at 37° C.
Procedure: as §1, §2, §3, §4, §5, §6, §7, §8, §9, §10

[4] = biological target: T2, NEP (prepared from pig kidney cortex); experiment: Activity assay: breakdown of VIP and CNP by NEP; assay type: biochemical; settings: 120 min at 37° C., no inhibitor
Procedure: as §3, §4
(§11) 80 μl of assay buffer, 10 μl of enzyme working solution (NEP or hSEP) and 10 μl of peptide stock solution (VIP or CNP) were mixed in an Eppendorf vial and incubated for 120 min. at 37° C. The enzymatic reaction was subsequently terminated by heating to 95° C. for 5 min. […]
as §8
(§12) The percentage (=%) of hydrolysis was calculated on the basis of the peak area of the undegraded peptide for an enzyme containing sample Y in correlation to a sample containing the same concentration of peptide without enzyme (blank) by the following equation: % hydrolysis=100*(blank−Y) […]

[5] = biological target: T1, hSEP (His6-tagged hSEP ectodomain); experiment: Activity assay: breakdown of VIP and CNP by hSEP; assay type: biochemical; settings: 120 min at 37° C., no inhibitor
Procedure: as §3, §4, §11, §8, §12

[6] = tested on: patients with ED; settings: intracavernosal injection, combined with the α-adrenoceptor antagonist phentolamine; cited from earlier work
[7] = substrate CNP (32-53), read-out: inhibition of breakdown of CNP by hSEP IC50
[8] = substrate VIP, read-out: inhibition of breakdown of VIP by hSEP IC50
[9] = inhibition of breakdown of CNP by NEP IC50, substrate CNP (32-53)
[10] = inhibition of breakdown of VIP by NEP IC50, substrate VIP
[11] = substrate CNP (32-53), read-out: inhibition of breakdown of CNP by NEP IC50
[12] = substrate VIP, read-out: inhibition of breakdown of VIP by NEP IC50

T2 sequence (A0A4X1SQE6 entry or part of it): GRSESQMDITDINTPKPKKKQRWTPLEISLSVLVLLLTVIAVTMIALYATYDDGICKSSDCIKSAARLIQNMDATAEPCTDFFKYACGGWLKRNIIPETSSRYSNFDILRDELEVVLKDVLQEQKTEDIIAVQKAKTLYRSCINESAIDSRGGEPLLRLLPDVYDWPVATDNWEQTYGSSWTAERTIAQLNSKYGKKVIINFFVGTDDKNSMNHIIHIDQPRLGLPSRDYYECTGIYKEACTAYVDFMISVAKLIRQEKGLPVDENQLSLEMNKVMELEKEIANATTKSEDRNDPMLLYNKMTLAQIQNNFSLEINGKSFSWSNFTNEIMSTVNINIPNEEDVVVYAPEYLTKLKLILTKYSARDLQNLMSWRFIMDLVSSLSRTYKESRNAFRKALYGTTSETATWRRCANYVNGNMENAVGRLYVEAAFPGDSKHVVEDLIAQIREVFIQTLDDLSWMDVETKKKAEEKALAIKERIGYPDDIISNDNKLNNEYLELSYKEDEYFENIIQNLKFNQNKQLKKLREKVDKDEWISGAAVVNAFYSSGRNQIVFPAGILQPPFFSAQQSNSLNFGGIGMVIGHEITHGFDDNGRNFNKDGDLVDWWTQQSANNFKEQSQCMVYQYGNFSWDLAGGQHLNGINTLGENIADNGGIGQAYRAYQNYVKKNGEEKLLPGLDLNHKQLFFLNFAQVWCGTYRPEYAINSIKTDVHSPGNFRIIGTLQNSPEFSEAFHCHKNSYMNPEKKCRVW

## O=C(O)CNC(=O)C(CS)Cc1ccccc1 (racemic) [thiorphan, reference compound]
[1]; [7]
  IC50: > 1000 nM
[1]; [8]
  IC50: > 1000 nM
[2]
  Maximal big-ET-induced contraction: 91.57 percentage of the contractile responses induced by 80 mM of KCl
[3]; [9]
  IC50: 8.4 nM
[3]; [10]
  IC50: 6.4 nM

## O=C(O)CN1C(=O)C(NC(=O)C2(CC(CCc3ccccc3)C(=O)O)CCCC2)CCc2ccccc21 (stereo not shown) [Cpd. of Formula IV, 2-[1-(1-carboxymethyl-2-oxo-2,3,4,5-tetrahydro-1H-benzo[b]azepin-3-ylcarbamoyl)-cyclopentylmethyl]-4-phenyl-butyric acid]
[2]
  Maximal big-ET-induced contraction: 32.80 percentage of the contractile responses induced by 80 mM of KCl

## Cc1nn(-c2ccccc2)c(NC(=O)NS(=O)(=O)c2ccc(Cl)cc2)c1C#N [SM-19712, reference compound]
[2]
  Maximal big-ET-induced contraction: 85.10 percentage of the contractile responses induced by 80 mM of KCl

## CCOP(=O)(CC1(C(=O)N[C@H]2CCc3ccccc3N(CC(=O)OC(C)(C)C)C2=O)CCCC1)OCc1ccccc1 (stereo partly drawn) [compound 2, (3S)-(3-{[1-(Benzyloxy-ethoxy-phosphorylmethyl)-cyclopentanecarbonyl]-amino}-2-oxo-2,3,4,5-tetrahydro-benzo[b]azepin-1-yl)-acetic acid tert-butyl ester]
[1]; [7]
  IC50: 2.8 nM
[1]; [8]
  IC50: 4 nM
[3]; [9]
  IC50: 2.3 nM
[3]; [10]
  IC50: 1.6 nM

## CCOC(=O)C(CCc1ccccc1)CC1(C(=O)NC2CCc3ccccc3N(CC(=O)O)C2=O)CCCC1 (stereo not shown) [compound of Formula II, 2-[1-(1-carboxymethyl-2-oxo-2,3,4,5-tetrahydro-1H-benzo[b]azepin-3-ylcarbamoyl)-cyclopentylmethyl]-4-phenyl-butyric acid ethyl ester]
[1]; [7]
  IC50: 0.7 nM
[1]; [8]
  IC50: 3.5 nM
[3]; [11]
  IC50: 7.5 nM
[3]; [12]
  IC50: 3.3 nM

## CCOC(=O)[C@H](CCc1cccc2ccccc12)CC1(C(=O)N[C@H]2CCc3ccccc3N(CC(=O)O)C2=O)CCCC1 [compound of Formula III, {(3S)-3-[({1-[(2R)-2-(ethoxycarbonyl)-4-(1-naphthyl)butyl]cyclopentyl}carbonyl)amino]-2-oxo-2,3,4,5-tetrahydro-1H-1-benzazepin-1-yl}acetic acid]
[1]; [7]
  IC50: 2.2 nM
[1]; [8]
  IC50: 2.9 nM
[3]; [11]
  IC50: 6.6 nM
[3]; [12]
  IC50: 4.2 nM

## O=C(O)CN1C(=O)C(NC(=O)C2(CC(CCc3cccc4ccccc34)C(=O)O)CCCC2)CCc2ccccc21 (stereo not shown) [cpd. of Formula V, 2-[1-(1-carboxymethyl-2-oxo-2,3,4,5-tetrahydro-1H-benzo[b]azepin-3-ylcarbamoyl)-cyclopentylmethyl]-4-naphthalen-1-yl-butyric acid]
[2]
  Maximal big-ET-induced contraction: 49.60 percentage of the contractile responses induced by 80 mM of KCl

## CNP: C-type natriuretic peptide, substrate CNP (32-53), supplier Bachem
[4]
  degradation at t = 2 h by NEP: 39%
[5]
  degradation at t = 2 h by hSEP: 46%

## VIP: vasoactive intestinal peptide, substrate, supplier Bachem
[4]
  degradation at t = 2 h by NEP: 28%
[5]
  degradation at t = 2 h by hSEP: 36%
[6]
  response rate (erections sufficient for sexual intercourse): 67%

Source: US20050267072A1, “Pharmaceutical compositions containing dually acting inhibitors of neutral endopeptidase for the treatment of sexual dysfunction” (Solvay Pharmaceuticals GmbH, priority 2004, published 2005)
